Assay results from the supplement of paper PMC13380429.

How the values were obtained:
Caco-2 [1] = assay: drug sensitivity score (DSS) for viability; higher = more toxic; extreme values may be limits of the assay; conditions: 72 h
U2OS [2] = assay: as above; conditions: 72 h
Vero E6 [3] = assay: as above; conditions: 72 h
HepG2 [4] = assay: as above; conditions: 72 h
Calu-3 [5] = assay: as above; conditions: 72 h
A549-ACE2 [6] = assay: phospholipidosis EC50; higher = less potent phospholipidosis inducer
Vero E6 [7] = assay: relative viability EC50 (midpoint between 100% and the lowest measured viability); higher = less toxic; conditions: 72 h
Calu-3 [8] = assay: as above; conditions: 72 h
[9] = tested on: A549-ACE2 infected with SARS-CoV-2; assay: SARS-CoV-2 infection rate relative to DMSO; higher = more infection; conditions: 24 h
[10] = tested on: A549-ACE2 infected with SARS-CoV-2; assay: morphology score (similarity to uninfected cells); higher = more like uninfected cells; conditions: 24 h
Caco-2 [11] = assay: cell viability relative to DMSO; higher = less toxic; conditions: 72 h
U2OS [12] = assay: as above; conditions: 72 h
Vero E6 [13] = assay: as above; conditions: 72 h
HepG2 [14] = assay: as above; conditions: 72 h
Calu-3 [15] = assay: as above; conditions: 72 h
A549-ACE2 [16] = assay: drug-induced phospholipidosis relative to tamoxifen; higher = more phospholipidosis
[17] = tested on: A549-ACE2 infected with SARS-CoV-2; assay: cell count relative to DMSO; higher = less toxic; conditions: 24 h
Caco-2 [18] = assay: relative viability EC50 (midpoint between 100% and the lowest measured viability); higher = less toxic; conditions: 72 h
U2OS [19] = assay: as above; conditions: 72 h
HepG2 [20] = assay: as above; conditions: 72 h

Nc1ncccc1-c1nc2ccc(-c3ccccc3)nc2n1-c1ccc(C2(N)CCC2)cc1 [ARQ-092]
Conditions	drug sensitivity score	relative viability EC50
Caco-2 [1]	7.1	–
Calu-3 [5]	8.7	–
Calu-3 [8]	–	1520 nM
HepG2 [4]	6.1	–
U2OS [2]	2.7	–
Vero E6 [3]	3.3	–
Vero E6 [7]	–	> 10 µM

Conditions	SARS-CoV-2 infection rate [%]	cell count [%]	cell viability [%]	morphology score	phospholipidosis EC50 [nM]
A549-ACE2 [6], 24 h	–	–	–	–	3220
A549-ACE2 [6], 48 h	–	–	–	–	1250
Caco-2 [11], 1 nM	–	–	94.7	–	–
Caco-2 [11], 10 nM	–	–	97.9	–	–
Caco-2 [11], 100 nM	–	–	87.4	–	–
Caco-2 [11], 1000 nM	–	–	68	–	–
Caco-2 [11], 10000 nM	–	–	52.8	–	–
Calu-3 [15], 1 nM	–	–	98.3	–	–
Calu-3 [15], 10 nM	–	–	108	–	–
Calu-3 [15], 100 nM	–	–	95.7	–	–
Calu-3 [15], 1000 nM	–	–	76.3	–	–
Calu-3 [15], 10000 nM	–	–	8.8	–	–
HepG2 [14], 1 nM	–	–	102	–	–
HepG2 [14], 10 nM	–	–	95.2	–	–
HepG2 [14], 100 nM	–	–	90.4	–	–
HepG2 [14], 1000 nM	–	–	72.4	–	–
HepG2 [14], 10000 nM	–	–	51.4	–	–
U2OS [12], 1 nM	–	–	99.8	–	–
U2OS [12], 10 nM	–	–	99.4	–	–
U2OS [12], 100 nM	–	–	102	–	–
U2OS [12], 1000 nM	–	–	91.9	–	–
U2OS [12], 10000 nM	–	–	68.2	–	–
Vero E6 [13], 1 nM	–	–	95.1	–	–
Vero E6 [13], 10 nM	–	–	102	–	–
Vero E6 [13], 100 nM	–	–	86.5	–	–
Vero E6 [13], 1000 nM	–	–	82.2	–	–
Vero E6 [13], 10000 nM	–	–	84.7	–	–
[9], 0.3 µM	107	–	–	–	–
[9], 3 µM	51	–	–	–	–
[9], 10 µM	25	–	–	–	–
[9], 30 µM	78	–	–	–	–
[10], 0.3 µM	–	–	–	-0.1	–
[10], 3 µM	–	–	–	0.72	–
[10], 10 µM	–	–	–	0.54	–
[10], 30 µM	–	–	–	-0.21	–
[17], 0.3 µM	–	96	–	–	–
[17], 3 µM	–	98	–	–	–
[17], 10 µM	–	94	–	–	–
[17], 30 µM	–	46	–	–	–

drug-induced phospholipidosis [%], A549-ACE2 [16]
Conditions	0.3 µM	0.833333 µM	3.33333 µM	6.66667 µM	10 µM	30 µM
24 h	1.77	12	89.4	198	175	50.3
48 h	3.37	9.82	86.6	–	138	36.8
72 h	2.32	7.77	–	–	–	–

Cc1ccc(NC(=O)Nc2cc(C(F)(F)F)ccc2F)cc1Nc1ccc2c(c1)NC(=O)/C2=C\c1ccc[nH]1 [GNF-5837]
Conditions	drug sensitivity score	relative viability EC50
Caco-2 [1]	1.7	–
Caco-2 [18]	–	> 10 µM
Calu-3 [5]	0	–
Calu-3 [8]	–	> 10000 nM
HepG2 [4]	3	–
HepG2 [20]	–	3.46 µM
U2OS [2]	0.4	–
U2OS [19]	–	> 10 µM
Vero E6 [3]	0.2	–
Vero E6 [7]	–	> 10 µM

Conditions	SARS-CoV-2 infection rate [%]	cell count [%]	cell viability [%]	morphology score	phospholipidosis EC50 [nM]
A549-ACE2 [6], 24 h	–	–	–	–	2170
A549-ACE2 [6], 48 h	–	–	–	–	2340
A549-ACE2 [6], 72 h	–	–	–	–	2600
Caco-2 [11], 1 nM	–	–	105	–	–
Caco-2 [11], 10 nM	–	–	97.6	–	–
Caco-2 [11], 100 nM	–	–	103	–	–
Caco-2 [11], 1000 nM	–	–	94.5	–	–
Caco-2 [11], 10000 nM	–	–	75.7	–	–
Calu-3 [15], 1 nM	–	–	97.9	–	–
Calu-3 [15], 10 nM	–	–	96.4	–	–
Calu-3 [15], 100 nM	–	–	100	–	–
Calu-3 [15], 1000 nM	–	–	109	–	–
Calu-3 [15], 10000 nM	–	–	96.9	–	–
HepG2 [14], 1 nM	–	–	92.5	–	–
HepG2 [14], 10 nM	–	–	98.7	–	–
HepG2 [14], 100 nM	–	–	98.5	–	–
HepG2 [14], 1000 nM	–	–	103	–	–
HepG2 [14], 10000 nM	–	–	39	–	–
U2OS [12], 1 nM	–	–	99.6	–	–
U2OS [12], 10 nM	–	–	97.2	–	–
U2OS [12], 100 nM	–	–	97.2	–	–
U2OS [12], 1000 nM	–	–	98.2	–	–
U2OS [12], 10000 nM	–	–	85.5	–	–
Vero E6 [13], 1 nM	–	–	107	–	–
Vero E6 [13], 10 nM	–	–	107	–	–
Vero E6 [13], 100 nM	–	–	97	–	–
Vero E6 [13], 1000 nM	–	–	106	–	–
Vero E6 [13], 10000 nM	–	–	83.5	–	–
[9], 0.3 µM	103	–	–	–	–
[9], 3 µM	85	–	–	–	–
[9], 10 µM	22	–	–	–	–
[9], 30 µM	44	–	–	–	–
[10], 0.3 µM	–	–	–	-0.15	–
[10], 3 µM	–	–	–	0.36	–
[10], 10 µM	–	–	–	0.82	–
[10], 30 µM	–	–	–	0.59	–
[17], 0.3 µM	–	100	–	–	–
[17], 3 µM	–	105	–	–	–
[17], 10 µM	–	115	–	–	–
[17], 30 µM	–	96	–	–	–

drug-induced phospholipidosis [%], A549-ACE2 [16]
Conditions	0.3 µM	0.833333 µM	3.33333 µM	6.66667 µM	10 µM	30 µM
24 h	4.96	25.4	116	132	160	164
48 h	4.94	9.4	80.5	95.6	96.1	120
72 h	3.67	5.1	59.1	70.1	78.2	91.4
